From paper PMC9779714, “Enhanced Therapeutic Effect of Optimized Melittin-dKLA, a Peptide Agent Targeting M2-like Tumor-Associated Macrophages in Triple-Negative Breast Cancer” (International Journal of Molecular Sciences, 2022) come the findings set out here.

One data set concerns red blood cells. In words: Hemolysis assay on mouse red blood cells. The class given is cell-based, BALB/c mouse. The conditions noted are these: mouse red blood cells in PBS, peptides 1-40 μM, 4 h at 37 °C, OD 450 nm of supernatant, 2% Triton X-100 positive control, mean of n = 3. How it is done: Melittin has been well-documented to have strong hemolytic effects. To diminish such adverse effects, several truncated melittin were synthesized and analyzed in vitro (Figure 2A). Mouse blood cells were treated with varying concentrations of peptides for 4 h, and the optical density was measured using a microplate reader.
Figure 2 Melittin fragments have fewer hemolytic effects than melittin. (A) Amino acid sequence of melittin and melittin-truncated peptide. (B) Hemolysis of red blood cells treated with FITC-conjugated melittin or FITC-conjugated melittin fragments at concentrations ranging from 1 μM to 40 μM and incubated at 37 °C for 4 h. […] The optical density of hemoglobin released supernatant was measured at 450 nm. […]
Figure 4 Characterization of the optimized hybrid peptide drug, PEG-melittin-dKLA 8-26. […] The optical density was measured at 490 nm. […] The optical density of hemoglobin released in the supernatant was measured at 450 nm. […]
Blood was collected from each BALB/c mouse. […] The optical density of the samples was measured at 450 nm using a microplate reader (Molecular Devices). The percentage of hemolysis was calculated using the following equation: hemolysis (%) = (OD450 nm sample − OD450 nm negative control)/(OD450 nm positive control − OD450 nm negative control) × 100%. All data are expressed as the mean ± SEM of three independent experiments.

Data set [1] has as its system THP-1-derived M2 macrophages. Briefly: Flow cytometry binding of FITC-conjugated peptides to M2 macrophages. Particulars: 100 nM FITC-conjugated peptides, 1 h, percentage of FITC-positive cells, n = 3. The class given is cell-based, human. The method, then: To address the binding ability of truncated melittin peptides to M2 macrophages, fluorescein isothiocyanate (FITC)-conjugated peptides were synthesized and incubated with M2 macrophages, and the percentage of FITC-positive cells was measured using flow cytometry. […] Next, to confirm and compare the binding capabilities of melittin and melittin 8-26 to different macrophage lineages, including M0, M1, and M2, FITC-conjugated peptides were tested on each macrophage phenotype, and their binding capabilities were measured by flow cytometry. […]
Figure 3 Binding of melittin fragments to the THP-1-derived M2 macrophages. […] (A) Melittin or melittin fragment affinity for M2 macrophages was measured using flow cytometry. […] (B) The affinity of melittin or melittin 8-26 for macrophages was detected by flow cytometry. TEXT PRINTED IN THE PICTURE: (B) Melittin: M0: 21.78; M1: 17.22; M2: 46.02 | (B) Melittin 8-26: M0: 26.8; M1: 14.74; M2: 34.66 DOUBTS OF THE COPYIST ABOUT THIS PICTURE: Panel B: the tiny quadrant labels (UL 0.00, UR 0.00, and LL values such as about 78.22, 53.98, 73.20, 85.26, 65.34) are too small, blurred or partly hidden by the dots to read with certainty, so they are left out. / Panel B: no measure or unit is printed with the large quadrant numbers. […]
A general note: A flow cytometer gives signals particle by particle.

As to melittin, in the data set on red blood cells, the “concentration at which hemolysis was observed” value is recorded as “above 5 μM”. Besides, the “binding affinity to M2 macrophages (in words)” value in data set [1] is recorded as “highest binding affinity”.
